Patent publication US20140356383A1, “ADMINISTRATION OF AN ANTI-GCC ANTIBODY-DRUG CONJUGATE AND A DNA DAMAGING AGENT IN THE TREATMENT OF CANCER” (priority 2013, published 2014)

System: PHTX-249 Pa primary human pancreatic tumor xenograft
Assay: Single-agent 5F9 vcMMAE in PHTX-249 Pa pancreatic xenograft
Type: in vivo, mice
Description: The purpose of this study was to evaluate in vivo anti-tumor activity induced by combined administration of the 5F9 vcMMAE immunoconjugate (sometimes referred to herein as “MLN0264”) and gemcitabine in mouse xenograft primary human tumor explants (PHTX models of pancreatic cancer. These models included tumor tissue from patients with wild-type and mutant KRAS. Five pancreatic PHTX were generated by Champions Oncology (Hackensack, N.J.) using their CTG platform. 2 PHTX models were developed in-house. GCC expression was evaluated in each of the 7 PHTX models using the automated IHC assay described above.
In vivo anti-tumor studies of single-agent 5F9 vcMMAE immunoconjugate was conducted in all seven of the pancreatic subcutanreous xenograft mouse models. Animals were administered vehicle, free MMAE at 0.135 mg/kg once weekly (QW), a non-GCC targeting ADC at 7.5 mg/kg QW, or 5F9 vcMMAE at 3.75 or 7.5 mg/kg QW. The results for single agent activity of the immunoconjugate in PHTX-215 Pa and PHTX-249 Pa models is shown in FIGS. 15A and 15B, respectively.

5F9 vcMMAE: 5F9 mAb conjugated to MMAE using a vc (Val-Cit) linker; average drug loading about 3.6
tumor growth inhibition (PHTX-249 Pa, by day 21): significant TGI versus vehicle or free MMAE | TGI, % (model PHTX-249, KRAS Mut G12D, QWx3, day 21): 47%
